{"source": "patent US20240327411A1", "about": "“SIRT6 ACTIVATORS” (The Board of Regents of The University of Texas System, priority 2022, published 2024)", "key": {"SARS-CoV-2": {"tested_on": "SARS-CoV-2", "experiment": "microbe, parasite or virus in culture", "format": "cell-based"}, "Sirt6 [1]": {"target": "T1, Sirt6 (Homo sapiens, UniProt Q8N6T7)", "T1 sequence (Q8N6T7 whole entry)": "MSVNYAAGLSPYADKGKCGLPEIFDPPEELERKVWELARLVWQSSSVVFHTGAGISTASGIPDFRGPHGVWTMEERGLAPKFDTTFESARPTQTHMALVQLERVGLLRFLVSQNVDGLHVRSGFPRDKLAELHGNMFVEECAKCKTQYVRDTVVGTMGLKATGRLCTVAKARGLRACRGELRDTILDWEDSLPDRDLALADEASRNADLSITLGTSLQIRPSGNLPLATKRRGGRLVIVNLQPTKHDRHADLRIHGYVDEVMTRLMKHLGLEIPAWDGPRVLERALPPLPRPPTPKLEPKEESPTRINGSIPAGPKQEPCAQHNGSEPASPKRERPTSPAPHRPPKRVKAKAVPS", "experiment": "Sirt6-dependent peptide deacetylation, FLUOR DE LYS / Sirt6 fluorometric activity kit", "format": "biochemical", "details": "mean ± SD, at least two independent experiments", "quoted_text": "(§1) Sirt6/Sirt1/Sirt2/Sirt3 activity was tested by Activity Assay Kits (Abcam) according to the manufacturer's instruction with minor modification. […] All experiments were conducted at room temperature."}, "A549-hACE2 cells": {"tested_on": "A549-hACE2 cells", "experiment": "Cell viability assay in A549-hACE2 cells", "details": "50 μM, 48 h"}, "[2]": {"tested_on": "retinal precursor cells (R28)", "experiment": "MTT cell viability assay in R28 cells", "format": "cell-based", "details": "30 μM, 24 hours", "method": "FIGS. 5A-5C: FIGS. 5A-5C display the deacetylation effect and cytotoxicity of selected compounds. […] Nucleosomes extracted from HEK293T cells were incubated with 100 μM of selected compounds or Vehicle at 30° C. for 60 minutes. Acetylated H3K9 and total H3 were detected by Western blot. The level of acetylated H3K9 was quantified by Image Lab software. FIGS. 5B and 5C show the cell viability which was assessed by MTT assay. R28 cells were treated with 30 μM or 100 μM compounds for 24 hours. Data were presented as mean±SEM. The experiment was repeated at least three times. ***p<0.001; ****p<0.0001.\nR28 cells were seeded in 96 well plates at a density of 1×10^4/well overnight, then treated with compounds for 24 h. MTT (MilliporeSigma) was added to cells (20 μL/well) and incubated for 3.5 h. After medium was removed, 100 μL dimethyl sulfoxide (DMSO) was added into each well. Absorbance was measured at 540 nm using a microplate reader."}, "Sirt1": {"target": "T2, Sirt1 (Homo sapiens, UniProt Q96EB6)", "T2 sequence (Q96EB6 1-747)": "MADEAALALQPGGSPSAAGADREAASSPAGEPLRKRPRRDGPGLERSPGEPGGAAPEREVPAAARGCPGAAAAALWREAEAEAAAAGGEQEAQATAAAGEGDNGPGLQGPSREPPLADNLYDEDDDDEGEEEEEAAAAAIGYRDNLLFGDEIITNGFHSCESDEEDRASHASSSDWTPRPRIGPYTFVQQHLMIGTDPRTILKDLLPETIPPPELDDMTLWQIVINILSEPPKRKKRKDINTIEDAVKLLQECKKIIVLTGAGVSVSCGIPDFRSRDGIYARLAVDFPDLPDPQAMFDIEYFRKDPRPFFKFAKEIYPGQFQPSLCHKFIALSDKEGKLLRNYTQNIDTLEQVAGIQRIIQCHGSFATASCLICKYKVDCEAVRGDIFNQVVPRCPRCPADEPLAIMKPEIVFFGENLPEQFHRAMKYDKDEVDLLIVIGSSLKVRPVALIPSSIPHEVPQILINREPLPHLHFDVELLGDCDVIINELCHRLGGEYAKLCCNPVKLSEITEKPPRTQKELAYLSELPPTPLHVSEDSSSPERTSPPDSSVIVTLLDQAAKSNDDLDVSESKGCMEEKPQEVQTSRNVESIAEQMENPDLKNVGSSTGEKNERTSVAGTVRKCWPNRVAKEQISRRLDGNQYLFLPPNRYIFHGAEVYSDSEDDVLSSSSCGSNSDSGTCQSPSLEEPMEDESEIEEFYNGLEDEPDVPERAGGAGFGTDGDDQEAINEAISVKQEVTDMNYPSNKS", "experiment": "Sirt1 deacetylation activity assay kit", "details": "time course, FIG. 3", "quoted_text": "as §1"}, "BV2 cells": {"tested_on": "BV2 cells", "experiment": "LPS-induced inflammatory gene mRNA expression in BV2 cells, q-PCR", "format": "cell-based, murine"}, "Sirt6 [3]": {"target": "T1, Sirt6", "experiment": "Nucleosome test: Sirt6-dependent H3K9 deacetylation of nucleosomes from HEK293T cells, Western blot", "format": "biochemical", "details": "100 μM, 30° C., 60 minutes", "method": ". Nucleosomes extracted from HEK293T cells were incubated with 100 μM of selected compounds or Vehicle at 30° C. for 60 minutes. Acetylated H3K9 and total H3 were detected by Western blot. The level of acetylated H3K9 was quantified by Image Lab software. FIGS. 5B and 5C show the cell viability which was assessed by MTT assay. R28 cells were treated with 30 μM or 100 μM compounds for 24 hours. Data were presented as mean±SEM. The experiment was repeated at least three times. ***p<0.001; ****p<0.0001.\nNext, effects of selected compounds were explored for Sirt6-dependent deacetylation of complete nucleosomes extracted from human embryonic kidney (HEK) 293T cells, as nucleosomes represent more physiologically relevant substrates. […]. Briefly, HEK 293T cells in 100 mm dish were lysed with lysis buffer supplemented with PIC and PMSF for 30 min. After centrifugation for 10 min at 5000 rpm at 4° C., supernatant was removed and nuclei pellet was resuspended with digestion buffer supplemented with PIC and PMSF for 5 min at 37° C. Working enzymatic sharing cocktail was added to digest the chromatin, and EDTA was added after incubation to stop the digestion. Digested nucleosome was obtained in the supernatant after centrifugation for 10 min at 15000 rpm at 4° C. and the concentration was quantified by measuring the absorbance at […]. 20 μg nucleosome was incubated in solution (1× buffer, 0.5 μL recombinant Sirt6 and […] NAD, from SIRT6 ACTIVITY ASSAY KIT) for 60 min. To test the effects of the compounds on Sirt6 activity, corresponding compound or DMSO control was added before incubation. The reaction mixture was analyzed by Western blot.\nProteins were extracted from cells with PIERCE RIPA BUFFER (89901, ThermoFisher Scientific), and protein concentration was determined using PIERCE BCA PROTEIN ASSAY KIT (23225, ThermoFisher Scientific). Equal amounts of protein were loaded and separated by SDS-PAGE gel. Next, separated proteins were transferred onto Nitrocellulose Blotting Membranes (A29457237, GE Healthcare Life science), and then the membranes were blocked by 5% non-fat dry milk. After incubation with corresponding primary antibodies against H3K9ac, H3 and Sirt6 at a 1:1000 dilution, or α-tubulin at a 1:5000 dilution, goat anti-mouse or goat anti-rabbit secondary antibodies at a 1:5000 dilution were applied. Finally, membranes were incubated with enhanced chemiluminescent and protein bands were detected by CHEMIDOC imaging system (Bio-Rad). Image-Lab software was used to analyze the intensities of the protein bands."}, "Sirt3": {"target": "T3, Sirt3 (Homo sapiens, UniProt Q9NTG7)", "T3 sequence (Q9NTG7 1-399)": "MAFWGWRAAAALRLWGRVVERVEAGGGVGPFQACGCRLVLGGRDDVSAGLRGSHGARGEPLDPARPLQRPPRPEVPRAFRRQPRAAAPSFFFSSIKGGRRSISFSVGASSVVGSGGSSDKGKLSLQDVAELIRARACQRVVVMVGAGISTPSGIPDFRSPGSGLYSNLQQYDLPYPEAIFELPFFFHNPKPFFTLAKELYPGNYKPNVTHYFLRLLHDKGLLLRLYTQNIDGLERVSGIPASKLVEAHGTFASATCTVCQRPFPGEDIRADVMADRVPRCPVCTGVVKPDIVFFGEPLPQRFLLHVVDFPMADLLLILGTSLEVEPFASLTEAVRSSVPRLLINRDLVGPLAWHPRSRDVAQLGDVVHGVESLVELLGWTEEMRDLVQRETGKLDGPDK", "experiment": "Sirt3 deacetylation activity assay kit", "details": "time course, FIG. 3", "quoted_text": "as §1"}}, "data": [{"smiles": "CN(C)CCN1CCN(c2ncccc2C2Nc3ccccc3-n3cccc32)CC1", "note": "(stereo not drawn) [Compound 38, 2-(4-(3-(4,5-Dihydropyrrolo[1,2-a]quinoxalin-4-yl)pyridin-2-yl)piperazin-1-yl)-N,N-dimethylethan-1-amine]", "values": [{"measurement": "potency in inhibiting SARS-CoV-2 infection (in words)", "setting": "SARS-CoV-2", "value": "micromolar potency"}, {"measurement": "EC50", "setting": "SARS-CoV-2; Severe acute respiratory syndrome coronavirus 2, 48 h, read-out: EC50, SARS-CoV-2 infection", "value": 9.3, "unit": "µM"}, {"measurement": "Activation Fold 30 μM", "setting": "Sirt6 [1]; compound at 30 μM", "value": "3.83 ± 0.46", "unit": "fold"}, {"measurement": "Activation Fold 100 μM", "setting": "Sirt6 [1]; compound at 100 μM", "value": "7.38 ± 0.6", "unit": "fold"}, {"measurement": "cytotoxicity at the highest tested concentration", "setting": "A549-hACE2 cells", "value": "none of these compounds exhibited significant cytotoxicity"}, {"measurement": "toxicity on retinal precursor cells (R28)", "setting": "[2]", "value": "no obvious toxicity"}, {"measurement": "effect on Sirt1 deacetylation", "setting": "Sirt1", "value": "no significant effects"}, {"measurement": "LPS-induced expression of IL-1β, IL-6, MCP-1, and TNFα", "setting": "BV2 cells; BV2 cells, 30 μM pretreatment 30 minutes, 100 ng/mL LPS 6 hours, mRNA", "value": "strongly inhibited"}, {"measurement": "ICAM-1 induction", "setting": "BV2 cells; BV2 cells, 30 μM, 100 ng/mL LPS 6 hours, mRNA", "value": "slight inhibition"}, {"measurement": "LPS-induced proinflammatory cytokine/chemokine production", "setting": "BV2 cells; summary statement", "value": "strongly repressed"}, {"measurement": "acetylation of H3K9 in the nucleosome test", "setting": "Sirt6 [3]", "value": "significantly decreased the acetylation of H3K9"}, {"measurement": "effect on Sirt3 deacetylation", "setting": "Sirt3", "value": "no significant effects"}]}]}
